Results as given in patent US20130337461A1, “METHOD FOR DIAGNOSIS, MONITORING THE EFFICACY OF A THERAPY AND FOR DEVELOPMENT OF TREATMENT FOR MULTIPLE SCLEROSIS” (priority 2010, published 2013).

What was measured:
[1] = test system: M03-13 cells; experiment: Differentiation of M03-13 cells with low doses of hydrogen peroxide: differentiation markers; type: cell-based, human
[2] = test system: M03-13 cells; experiment: Differentiation of M03-13 cells with PMA: expression or localization of differentiation markers
[3] = 100 nM PMA 30 min, cells pre-incubated 16 h in 0.2% FBS, Western blotting, vs not differentiated
[4] = 100 nM PMA 24 h, absence of serum, Western blotting
[5] = 200 μM H2O2 for 4 days in complete medium, Western blotting

`CC(=O)N[C@@H](CS)C(=O)O` [NAC, N-Acetyl-Cysteine] was tested, and the “reversal of hydrogen peroxide effects on α-SMA, P-CREB levels” value ([1]; 200 μM H2O2 in presence of NAC 10 mM or AEBSF 40 μM, Western blotting) was “reverted hydrogen peroxide effects”.
In the case of `CCCCCCCCCCCCCC(=O)O[C@@H]1[C@@H](C)[C@@]2(O)[C@@H](C=C(CO)C[C@]3(O)C(=O)C(C)=C[C@@H]23)[C@@H]2C(C)(C)[C@]12OC(C)=O` [PMA, 12-O-Tetradecanoylphorbol-13-acetate], the P-CREB levels [2, 3] is reported as “significantly increases”, the P-ERK1/2 levels [2, 3] is reported as “significantly increases” and the Olig-2 levels [2, 4] is reported as “increased”. The P-CREB levels [2, 4] was “increased”, the P-ERK1/2 levels [2, 4] was “increased” and the α-SMA levels [2, 4] was “decrease”. For the same compound, the “translocation of olig-2 from nucleus to cytosol” value ([2]; 100 nM PMA 24 h, medium without serum, confocal microscopy) was “a cytoplasmic staining of the cells became evident”, the α-SMA signal ([2]; 100 nM PMA serum-free medium, 1 and 4 days, confocal microscopy, vs not differentiated cells) was “decreased” and the Olig-2 fluorescent signal ([2]; 100 nM PMA serum-free medium, 1 day and 4 days, confocal microscopy, vs not differentiated cells) was “progressively increased”. The MBP signal ([2]; 100 nM PMA serum-free medium, 1 day or 4 days, confocal microscopy, vs not differentiated cells) was “increased”, the “mAchR M1 level” value ([2]; 100 nM PMA, absence of serum, 4 days, Western blotting) was “increased” and the “cytosolic MBP levels” value ([2]; 100 nM PMA, absence of serum, 4 days, cell fractionation and Western blotting) was “decreases”. For the same compound, the MBP protein levels ([2]; 100 nM PMA, medium without serum, 24 h and 4 days, flow cytometric analysis) was “time-dependent increase”.
In the case of hydrogen peroxide [H2O2], the “total MBP protein levels” value ([1]; 200 μM H2O2 4d, flow cytometric analysis) is reported as “increases”, the “translocation of olig-2 from nucleus to cytosol” value ([1]; 200 μM H2O2, 30 min and 24 h, confocal microscopy) is reported as “a cytoplasmic staining of the cells became evident already after 30 min” and the α-SMA signal ([1]; 200 μM H2O2 complete medium, 1 and 4 days, confocal microscopy, vs not differentiated cells) is reported as “decreased”. The Olig-2 fluorescent signal ([1]; 200 μM H2O2 complete medium, 1 day and 4 days, confocal microscopy, vs not differentiated cells) was “progressively increased”, the P-CREB levels [1, 5] was “induces” and the P-ERK1/2 levels [1, 5] was “not affected”. The α-SMA levels [1, 5] was “decreases”, the “cytosolic MBP levels” value ([1]; 200 μM hydrogen peroxide 4 days, complete medium, cell fractionation and Western blotting) was “decreases” and the “differentiation of oligodendrocyte precursors to differentiated cells” value ([1]; low doses of hydrogen peroxide, overall conclusion) was “induces the differentiation”.
